# Reference: patent US12037300B2, “Use of a cation source to prevent decomposition of (thio)phosphoric acid triamide urease inhibitors when a phosphorus-containing fertilizer is present” (BASF SE, priority 2016, dated 2024)
# Assays:
# [1] = tested on: urease, naturally present in the soil; test: Dräger test: ammonia emission from soil treated with fertilizer granules; type: biochemical; conditions: for prevention of the degradation of U1: 0.25 g salt, 18 days storage; for prevention of the degradation of U1 / influence of DAP on the performance of the tested urease inhibitors in urea/DAP blends on addition of the salt: 10 g DAP; for influence of DAP on the performance of the tested urease inhibitors in urea/DAP blends on addition of the salt: 0.5 g salt, 3 weeks storage
# Text: Alternatively, the amount of the (thio)phosphoric acid triamide (2) in a sample after a certain time period may be determined indirectly by determining the urease inhibiting efficacy that is observable. The urease-inhibiting efficacy may be determined by the Dräger test as outlined in the Examples. The Dräger test is based on the determination of the concentration of ammonia gas that is set free from a soil sample being treated with a urea-containing fertilizer once a day. In general, a certain amount of ammonia is typically produced within a certain time period in a soil sample being treated with a urea-containing fertilizer due to the degradation of the urea-containing fertilizer caused by the urease, which is present in the soil. If the urea-containing fertilizer is provided in combination with a urease inhibitor such as a (thio)phosphoric acid triamide (2), the degradation of the urea-containing fertilizer is slowed down, so that a lower amount of ammonia will be produced in the same time period. On the other hand, if the (thio)phosphoric acid triamide (2) has decomposed to a certain extent, e.g. upon storage, the production of ammonia will be reduced only to a lower extent. The ammonia concentration measured after a certain time period may thus be correlated with the amount of the (thio)phosphoric acid triamide (2) in a sample. In order to exclude a destabilizing effect caused by the urea-containing fertilizer (3a), the (thio)phosphoric acid triamide (2) may be provided in combination with a stabilizing agent, which prevents decomposition caused by the fertilizer (3a). By comparing the decomposition of the (thio)phosphoric acid triamide (2) in the presence of the fertilizer (3a) only, with the decomposition of the (thio)phosphoric acid triamide (2) in the presence of the fertilizer mixture (3) comprising the fertilizer (3a) and the P-containing fertilizer (3b), the decomposition caused by the P-containing fertilizer (3b) can be determined.
# For the Dräger test, 150 g Limburgerhof (Germany) soil is added to a 500 mL wide-mouth jar (9 cm diameter). Fertilizer granules are added and distributed evenly over the soil. The amount of fertilizer added corresponds to 115 mg of urea-N. The soil and fertilizer are then wetted with a fine spray of water (1 mL). Afterwards, the jar is closed with a lid. In the middle of the lid a hole is made in which an ammonia gas test tube (Dräger, Ammoniak 20/a-D 8101301, Diffusionsröhrchen) is placed. The urease, naturally present in the soil, hydrolyses urea into carbon dioxide and ammonia. The concentration of ammonia gas is read out once a day from the scale on the Dräger diffusion tube. All tests are performed in duplicate.
# For the preparation of dry blend fertilizer mixtures, 10 g of urea treated with a urease inhibitor and 10 g of the other fertilizer are added to a small jar. After closing the jar, the fertilizers are mixed by vigorously shaking the jar. The closed jar is then stored at room temperature in a dark place. At the end of the storage time, urea granules are removed and tested using the Dräger test.
# [2] = type: physicochemical; conditions: for decomposition of the urease inhibitors: after one day in the absence of TSP granules
# Text: The amount of the (thio)phosphoric acid triamide in a sample after a certain time period may be detected e.g. by HPLC using method DIN EN 16651. In order to exclude a destabilizing effect caused by the urea-containing fertilizer (3a), the (thio)phosphoric acid triamide (2) may be provided in combination with a stabilizing agent, which prevents decomposition caused by the fertilizer (3a). By comparing the decomposition of the (thio)phosphoric acid triamide (2) in the presence of the fertilizer (3a) only, with the decomposition of the (thio)phosphoric acid triamide (2) in the presence of the fertilizer mixture (3) comprising the fertilizer (3a) and the P-containing fertilizer (3b), the decomposition caused by the P-containing fertilizer (3b) can be determined.
# Active ingredient content on urea was analyzed by HPLC (high-pressure liquid chromatography) using method DIN EN 16651. In case of bulk blends, the urea granules were separated from the other fertilizers before dissolving in water for HPLC analysis.
# Urea granules treated with 0.04 wt.-% U1 active ingredient were mixed with TSP (Triple Super Phosphate) fertilizer granules. After mixing, the samples were stored in closed containers at room temperature. After 1 day of storage, the urea granules were separated from the TSP granules and the active ingredient (a.i.) concentration on the urea was analyzed by HPLC.
molecule,measurement,setting,value
O.O.O.O.O.O.O.O=S(=O)([O-])[O-].[Mg+2] [Magnesium sulfate heptahydrate],prevention of the degradation of U1,[1],does prevent the degradation of U1 as effectively as anhydrous magnesium sulfate
"CCCCNP(N)(N)=S [NBPT, N-n-butylthiophosphoric acid triamide]",decomposition of the urease inhibitors,[2],no decomposition
"CCCNP(N)(N)=S [NPPT, N-n-propylthiophosphoric acid triamide]",decomposition of the urease inhibitors,[2],no decomposition
"[Ca+2].[Cl-].[Cl-] [calcium chloride, Calcium chloride anhydrous]",prevention of the degradation of U1,[1],effective in preventing the degradation of U1
same,influence of DAP on the performance of the tested urease inhibitors in urea/DAP blends on addition of the salt,[1],eliminates the influence of DAP
same,prevention of the degradation of U1 active ingredient on wetblend fertilizers,"[1]; 16-8-22 fertilizer treated with CaCl2 solution, 1 month storage",able to prevent the degradation of U1 active ingredient
"O.O.O=S(=O)([O-])[O-].[Ca+2] [calcium sulfate, Calcium sulfate dihydrate]",prevention of the degradation of U1,[1],effective in preventing the degradation of U1
"O=S(=O)([O-])[O-].[Mg+2] [magnesium sulfate, Magnesium sulfate anhydrous]",prevention of the degradation of U1 in fertilizer mixtures containing DAP,"[1]; 0.25 g MgSO4, 10 g DAP, 1 month storage",does prevent the degradation of U1
same,influence of DAP on the performance of the tested urease inhibitors in urea/DAP blends on addition of the salt,[1],eliminates the influence of DAP
same,time for which degradation of U1 in mixtures containing DAP is prevented,[1]; 1.25 wt.-% magnesium sulfate,up to 5 months
same,time for which degradation of U1 in mixtures containing phosphate fertilizers is prevented,[1]; 2.5 wt.-% magnesium sulfate,up to 6 months
same,inhibition of the urease activity by the salt itself,"[1]; 10 g urea, 0.25 g MgSO4, 1 month storage",does not inhibit the urease activity
same,inhibition of the urease enzyme by the salt on its own,"[1]; Example 5, 18 days storage",does not inhibit the urease enzyme
same,amount effective to avoid U1 degradation,[1]; after 5 days storage of the NP mixture (urea/DAP),≤ 0.25 wt.-%
Urea,Remaining a.i. (%),[2]; 24 h,100%
